Values quoted from earlier work as cited in US20120171270A1, “DUAL ACTION ORGANIC FORMULATION TO CONTROL TWO STAGES OF INSECT PESTS” (priority 2010, published 2012).

Key:
gypsy moth larvae [1] = details: 16 hours after a 2 minute crawling exposure to glass coated with a 4 mg/litre spinosad solution
gypsy moth larvae [2] = details: 3-day exposure; 13-day evaluation; 2nd instar larvae; red oak leaf disks
[3] = system: mammalian and avian species; details: in vivo
gypsy moth larvae [4] = system: gypsy moth larvae

Compound	mating in low-density populations at lower doses (gypsy moth; 15, 6, and 3 grams per acre)	mating in low-density populations (gypsy moth; 30 grams per acre)	treated larvae paralyzed (gypsy moth larvae [1])	LC50 (gypsy moth larvae [2])	toxicity to mammalian and avian species [3]	population reduction at low application rate (gypsy moth larvae [4]; application rate of 0.75 mg/litre)	concentrations that effectively controlled larvae (gypsy moth larvae [4]; applied to foliage to run-off, 2nd instar larvae, laboratory and field)	larval population reduction (gypsy moth larvae [4]; at 3 to 50 mg/litre applied to run-off)	toxicity in the laboratory, efficacy and persistence in the field versus permethrin (gypsy moth larvae [4]; in vivo)
CCCCCCCCCC[C@H]1O[C@H]1CCCCC(C)C [disparlure]	can be suppressed	suppresses mating	–	–	–	–	–	–	–
spinosad	–	–	50%	0.0015 mg AI/cm2	little or no toxicity	large population reductions	3 ± 50 mg/L	95±100%	comparable to those achieved with permethrin
